Series [1] can be described thus: Selectivity index, ratio of IC50 for human KB cells to IC50 for Plasmodium falciparum W2. The series is classed as toxicity, cell-based. The settings on record: read-out: Ratio IC50.
Series [2] relates to Plasmodium falciparum. As to the kind of experiment: microbe, parasite or virus in culture. Format: functional, organism-based. The settings on record: W2.
Description: Antiplasmodial activity against Plasmodium falciparum W2
The next series deals with KB. As to the kind of experiment: cells. Format: ADME, cell-based. The settings on record: Homo sapiens.
Series [3] is described as follows: Selectivity index, ratio of IC50 for human KB cells to IC50 for Plasmodium falciparum D6. The settings on record: read-out: Ratio IC50. Format: toxicity, cell-based.
The subject of series [4] is Plasmodium falciparum. As to the kind of experiment: microbe, parasite or virus in culture. The series is classed as functional, organism-based. The settings on record: D6.
Description: Antiplasmodial activity against Plasmodium falciparum D6

The structures appear in SMILES notation. In brackets after ≈: the same amount, converted by molar mass.

These results are taken from ChEMBL document CHEMBL1158252, “Antimalarial activity: the search for marine-derived natural products with selective antimalarial activity” (J Nat Prod, 1996).

Description for KB: Cytotoxicity against human KB cells

As a reminder, the IC50 is the midpoint of a concentration-inhibition curve. Read a high IC50 as lower potency. For the compound `C=C[C@H]1CN2CC[C@H]1C[C@H]2[C@H](O)c1ccnc2ccc(OC)cc12` [QUININE], the selectivity ratio was greater than 370 in series [1] and greater than 1800 in series [3]. Besides, the IC50 was 0.0546 µg/mL (≈ 0.168 µM) with Plasmodium falciparum [2] and greater than 20 µg/mL in the series with KB.

Turning to `C[C@@H]1C[C@@H]2C[C@H](C)[C@H]3CC[C@](C)(N=C=S)[C@H]4CC[C@@H]([C@@H]2[C@H]34)[C@]1(C)C#N`, the values for the selectivity ratio in series [1] and in series [3] were 56 and 35, respectively. Also, the IC50 was 0.0285 µg/mL (≈ 0.0799 µM) with Plasmodium falciparum [2], 1.6 µg/mL (≈ 4.49 µM) in the series with KB and 0.0451 µg/mL (≈ 0.126 µM) in the series with Plasmodium falciparum [4].

As to `C=C1CC[C@H]2[C@H]3[C@H](CC[C@]2(C)C#N)[C@@H](C)C[C@@H](CC(C)(C)N=C=S)[C@H]13`, the selectivity ratio is greater than 183 in series [1] and greater than 42.6 in series [3]. Also, the half-inhibitory concentration (IC50) is 0.109 µg/mL (≈ 0.306 µM) in the series with Plasmodium falciparum [2], greater than 20 µg/mL with KB and 0.47 µg/mL (≈ 1.32 µM) with Plasmodium falciparum [4].

As to `COc1ccc(CO)cc1`, the IC50 is greater than 10 µg/mL with Plasmodium falciparum [2], greater than 20 µg/mL with KB and greater than 10 µg/mL in the series with Plasmodium falciparum [4].

`C=C(C)/C=C/[C@]12C[C@H](C)[C@H]3CC[C@](C)(C#N)[C@@H](CC[C@H]1C)[C@@H]32`: the selectivity ratio in series [1] stood at 640; in series [3] it was 210. Besides, the concentration for half-maximal inhibition (IC50) in the series with Plasmodium falciparum [2] worked out at 0.0297 µg/mL (≈ 0.0998 µM); with KB it was 19.1 µg/mL (≈ 64.2 µM); with Plasmodium falciparum [4], 0.09 µg/mL (≈ 0.303 µM).

For `C=C(C)[C@@H]1C=C2C(C)CC[C@@H]2C(C)CC1` (stereo partly drawn), in series [1], the selectivity ratio is greater than 2.3. The IC50 with Plasmodium falciparum [2] was 8.46 µg/mL (≈ 41.4 µM); in the series on KB, greater than 20 µg/mL; in the series on Plasmodium falciparum [4] it was greater than 10 µg/mL.

With `C=C1CC[C@H]2[C@H]3[C@H](CC[C@]2(C)N=C=S)[C@@H](C)C[C@H](C=C(C)C)[C@]13O`, the figures for the selectivity ratio in series [1] and in series [3] were 12 and 6.6, respectively. Further, the IC50 in the series on Plasmodium falciparum [2] stood at 0.423 µg/mL (≈ 1.22 µM); in the series with KB it was 5.3 µg/mL (≈ 15.3 µM); in the series with Plasmodium falciparum [4], 0.797 µg/mL (≈ 2.31 µM).

On to `C[C@@H]1CC[C@H]2[C@@H](C)C(=O)O[C@@H]3O[C@@]4(C)CC[C@@H]1[C@]32OO4` [ARTEMISININ], for which the concentration for half-maximal inhibition (IC50) was 0.0021 µg/mL (≈ 0.00744 µM) with Plasmodium falciparum [2] and greater than 20 µg/mL with KB.

Consider `OC(c1cc(C(F)(F)F)nc2c(C(F)(F)F)cccc12)C1CCCCN1` (stereo not drawn) [MEFLOQUINE], for which the selectivity ratio in series [1] came out at 970; in series [3], 490.

In the case of `C[C@@H]1C[C@@H]2C[C@H](C)[C@H]3CC[C@](C)(C#N)[C@H]4CC[C@@H]([C@@H]2[C@H]34)[C@]1(C)N=C=O`, the selectivity ratio in series [1] worked out at 1710; in series [3] it was 1340. Also, the figures for the 50% inhibitory concentration (IC50) in the series on Plasmodium falciparum [2], in the series on KB and in the series with Plasmodium falciparum [4] were 0.0025 µg/mL (≈ 0.00734 µM), 4.3 µg/mL (≈ 12.6 µM) and 0.0032 µg/mL (≈ 0.0094 µM), respectively.

For the compound `C=C(C)C1CC[C@@H]2[C@H]3CCC(C)[C@H]3[C@H]12` (stereo partly drawn), the values for the IC50 in the series with Plasmodium falciparum [2], in the series on KB and in the series with Plasmodium falciparum [4] were greater than 10 µg/mL, greater than 20 µg/mL and greater than 10 µg/mL, respectively.

As to `CC(C)=C[C@H]1C[C@H](C)[C@H]2CC[C@](C)(C#N)[C@H]3CCC(C)=C1[C@H]23`, the selectivity ratio in series [1] is 590; in series [3], 260. The IC50 in the series with Plasmodium falciparum [2] is 0.0256 µg/mL (≈ 0.0861 µM); with KB, 15.2 µg/mL (≈ 51.1 µM); with Plasmodium falciparum [4], 0.0585 µg/mL (≈ 0.197 µM).

Consider `C[C@H]1C[C@H]2CC(C)(C)CC3=CC[C@H]4[C@@H]([C@@H]1CC[C@]4(C)C#N)[C@@H]32`, for which the results for the selectivity ratio in series [1] and in series [3] were greater than 700 and greater than 240, respectively. Moreover, the IC50 with Plasmodium falciparum [2] is 0.0284 µg/mL (≈ 0.0955 µM); in the series with KB, greater than 20 µg/mL; in the series with Plasmodium falciparum [4], 0.0849 µg/mL (≈ 0.285 µM).

As to `CC(C)=C[C@@H]1C[C@H](C)[C@H]2CC[C@](C)(C#N)[C@H]3CC=C(C)[C@@H]1[C@H]23`, the selectivity ratio in series [1] is greater than 150; in series [3] it was greater than 66.2. The IC50 was 0.133 µg/mL (≈ 0.447 µM) in the series with Plasmodium falciparum [2], greater than 20 µg/mL with KB and 0.302 µg/mL (≈ 1.02 µM) in the series on Plasmodium falciparum [4].

In the case of `C=C(C)C1[C@@H]2C(C)CC[C@@H]2[C@@]2(C)CC[C@@H]12` (stereo partly drawn), the IC50 was greater than 10 µg/mL in the series with Plasmodium falciparum [2], greater than 20 µg/mL with KB and greater than 10 µg/mL in the series with Plasmodium falciparum [4].

`[C-]#[N+][C@]1(C)[C@H](C)C[C@@H]2C[C@H](C)[C@H]3CC[C@](C)([N+]#[C-])[C@H]4CC[C@H]1[C@@H]2[C@H]34` [DIISOCYANOADOCIANE]: the selectivity ratio was 1100 in series [1] and 1000 in series [3]. Besides, the results for the IC50 in the series on Plasmodium falciparum [2] and in the series on KB were 0.0043 µg/mL (≈ 0.0133 µM) and 4.7 µg/mL (≈ 14.5 µM), respectively.

Take `C[C@@H]1C[C@@H]2C[C@H](C)[C@H]3CC[C@](C)(N=C=O)[C@H]4CC[C@@H]([C@@H]2[C@H]34)[C@]1(C)C#N`: the selectivity ratio is 36 in series [1] and 27 in series [3]. For the same compound, the IC50 with Plasmodium falciparum [2] stood at 0.0561 µg/mL (≈ 0.165 µM); in the series with KB it was 2 µg/mL (≈ 5.87 µM); with Plasmodium falciparum [4], 0.0749 µg/mL (≈ 0.22 µM).

Regarding `CC1=C[C@@H]2C[C@H](C)[C@H]3CC[C@](C)(C#N)[C@H]4CC[C@@H]([C@@H]2[C@H]34)[C@@H]1C`, the selectivity ratio turned out to be 930 in series [1] and 290 in series [3]. Also, the results for the IC50 in the series with Plasmodium falciparum [2], with KB and in the series with Plasmodium falciparum [4] were 0.0195 µg/mL (≈ 0.0655 µM), 18.2 µg/mL (≈ 61.2 µM) and 0.0625 µg/mL (≈ 0.21 µM), respectively.

As to `C=C1CC[C@H]2[C@H]3[C@H](CC[C@]2(C)C#N)[C@@H](C)C[C@H](C=C(C)C)[C@H]13`, the selectivity ratio was determined as 340 in series [1] and 230 in series [3]. In addition, the IC50 in the series with Plasmodium falciparum [2] stood at 0.0093 µg/mL (≈ 0.0313 µM); with KB, 3.2 µg/mL (≈ 10.8 µM); with Plasmodium falciparum [4], 0.0141 µg/mL (≈ 0.0474 µM).

Turning to `C[C@H]1C[C@H]2CC(C)(C)C=C3CC[C@H]4[C@@H]([C@@H]1CC[C@]4(C)C#N)[C@@H]32`, the selectivity ratio in series [1] stood at 610; in series [3] it was 200. In addition, the half-maximal inhibitory concentration (IC50) amounted to 0.0238 µg/mL (≈ 0.08 µM) in the series with Plasmodium falciparum [2], 14.5 µg/mL (≈ 48.7 µM) in the series with KB and 0.0741 µg/mL (≈ 0.249 µM) in the series with Plasmodium falciparum [4].

In the case of `O=Cc1ccc(O)cc1` [4-HYDROXYBENZALDEHYDE], the selectivity ratio in series [1] was greater than 3.6; in series [3] it was greater than 2.7. In addition, the IC50 with Plasmodium falciparum [2] was 5.56 µg/mL (≈ 45.5 µM); with KB it was greater than 20 µg/mL; in the series with Plasmodium falciparum [4], 7.33 µg/mL (≈ 60 µM).

For the compound `CC(C)=CCC[C@@H](C)[C@H]1CC[C@](C)(N=C=S)[C@H]2CCC(C)=C[C@H]12`, the IC50 is greater than 10 µg/mL with Plasmodium falciparum [2], greater than 20 µg/mL with KB and greater than 10 µg/mL in the series on Plasmodium falciparum [4].

With `C=C(C)C[C@@H]1C[C@H](C)[C@H]2CC[C@](C)(C#N)[C@H]3CCC(=C)[C@@H]1[C@H]23`, the selectivity ratio in series [1] is greater than 82.6; in series [3] it was greater than 38.5. Besides, the half-inhibitory concentration (IC50) in the series with Plasmodium falciparum [2] is 0.242 µg/mL (≈ 0.813 µM); in the series with KB, greater than 20 µg/mL; with Plasmodium falciparum [4] it was 0.52 µg/mL (≈ 1.75 µM).
